Assay results published in ChEMBL document CHEMBL1201862, “PubChem BioAssay data set” (2004).
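Method: 48-hour compound exposure of cells in 96-well plates, five concentrations, linear interpolation of endpoints. At the GI50, growth is halved.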 Calls of active or inactive are those of the source. Rule as the data show it: active = GI50 up to about 1.1 µM and inactive = higher.

Columns and labels:
Assay in all cases: DTP human tumour cell line panel, 48 h
HOP-92 = test system: HOP-92
HOP-62 = test system: HOP-62
IGROV-1 = test system: IGROV-1
NCI-H460 = test system: NCI-H460
RPMI-8226 = test system: RPMI-8226
NCI-H23 = test system: NCI-H23
SK-MEL-5 = test system: SK-MEL-5
NCI-H522 = test system: NCI-H522
UACC-257 = test system: UACC-257
UACC-62 = test system: UACC-62
SN12C = test system: SN12C
OVCAR-5 = test system: OVCAR-5
NCI/ADR-RES = test system: NCI/ADR-RES
MDA-MB-435 = test system: MDA-MB-435
M14 = test system: M14
MCF7 = test system: MCF7
SK-MEL-2 = test system: SK-MEL-2
COLO 205 = test system: COLO 205
K562 = test system: K562
HCT-116 = test system: HCT-116

SMILES	GI50 (HOP-92)	GI50 (HOP-62)	GI50 (IGROV-1)	GI50 (NCI-H460)	GI50 (RPMI-8226)	GI50 (NCI-H23)	GI50 (SK-MEL-5)	GI50 (NCI-H522)	GI50 (UACC-257)	GI50 (UACC-62)	GI50 (SN12C)	GI50 (OVCAR-5)	GI50 (NCI/ADR-RES)	GI50 (MDA-MB-435)	GI50 (M14)	GI50 (MCF7)	GI50 (SK-MEL-2)	GI50 (COLO 205)	GI50 (K562)	GI50 (HCT-116)
C=CC1OC(CCCOC(=O)C(C)(C)C)O[C@@H]1CC (stereo partly drawn)	> 100 µM (inactive)	> 100 µM (inactive)	> 100 µM (inactive)	37.2 µM (inactive)	> 100 µM (inactive)	> 100 µM (inactive)	> 100 µM (inactive)	> 100 µM (inactive)	> 100 µM (inactive)	> 100 µM (inactive)	> 100 µM (inactive)	> 100 µM (inactive)	> 100 µM (inactive)	> 100 µM (inactive)	> 100 µM (inactive)	> 100 µM (inactive)	> 100 µM (inactive)	> 100 µM (inactive)	–	–
CCN1c2ccccc2NC(=S)c2c(-c3ccccc3)n[nH]c21	43.8 µM (inactive)	–	34.1 µM (inactive)	28.6 µM (inactive)	16.1 µM (inactive)	26.5 µM (inactive)	20.3 µM (inactive)	21 µM (inactive)	48.2 µM (inactive)	27.3 µM (inactive)	43.5 µM (inactive)	56.4 µM (inactive)	23.1 µM (inactive)	18.4 µM (inactive)	31.6 µM (inactive)	22.4 µM (inactive)	25.3 µM (inactive)	31.5 µM (inactive)	17.6 µM (inactive)	33.2 µM (inactive)
O=S(=O)(c1ccccc1)C1CC(c2nc3ccccc3[nH]2)=NO1 (stereo not drawn)	80.4 µM (inactive)	> 100 µM (inactive)	16.6 µM (inactive)	50.1 µM (inactive)	28.1 µM (inactive)	> 100 µM (inactive)	70.3 µM (inactive)	28.6 µM (inactive)	> 100 µM (inactive)	> 100 µM (inactive)	> 100 µM (inactive)	> 100 µM (inactive)	> 100 µM (inactive)	72.3 µM (inactive)	–	53.3 µM (inactive)	> 100 µM (inactive)	37.3 µM (inactive)	31.6 µM (inactive)	52.6 µM (inactive)
Cc1cn(C2CCN(CC3COC(C)(C)O3)O2)c(=O)[nH]c1=O (stereo not drawn)	> 100 µM (inactive)	> 100 µM (inactive)	> 100 µM (inactive)	> 100 µM (inactive)	> 100 µM (inactive)	> 100 µM (inactive)	> 100 µM (inactive)	> 100 µM (inactive)	> 100 µM (inactive)	> 100 µM (inactive)	> 100 µM (inactive)	> 100 µM (inactive)	> 100 µM (inactive)	> 100 µM (inactive)	> 100 µM (inactive)	> 100 µM (inactive)	> 100 µM (inactive)	> 100 µM (inactive)	> 100 µM (inactive)	> 100 µM (inactive)
CCOC(=O)c1nc2ccccc2nc1Nc1ccc(C(=O)OC)s1	> 100 µM (inactive)	> 100 µM (inactive)	> 100 µM (inactive)	> 100 µM (inactive)	> 100 µM (inactive)	> 100 µM (inactive)	> 100 µM (inactive)	47.4 µM (inactive)	> 100 µM (inactive)	> 100 µM (inactive)	> 100 µM (inactive)	> 100 µM (inactive)	> 100 µM (inactive)	> 100 µM (inactive)	> 100 µM (inactive)	> 100 µM (inactive)	> 100 µM (inactive)	> 100 µM (inactive)	–	> 100 µM (inactive)
COc1ccc2c(-c3cc4ccccc4o3)cc(=O)oc2c1	24.3 µM (inactive)	13.3 µM (inactive)	41.3 µM (inactive)	44.7 µM (inactive)	> 88.7 µM (inactive)	52.1 µM (inactive)	40.1 µM (inactive)	37.2 µM (inactive)	54.8 µM (inactive)	67.5 µM (inactive)	68.9 µM (inactive)	> 42.2 µM (inactive)	24.7 µM (inactive)	> 100 µM (inactive)	75.7 µM (inactive)	> 67.3 µM (inactive)	66.5 µM (inactive)	> 100 µM (inactive)	> 100 µM (inactive)	42.3 µM (inactive)
COC(=O)c1ccccc1Nc1ccccc1C(=O)OC	23.4 µM (inactive)	59.6 µM (inactive)	89.3 µM (inactive)	> 100 µM (inactive)	64.1 µM (inactive)	> 100 µM (inactive)	54.7 µM (inactive)	32.1 µM (inactive)	> 100 µM (inactive)	> 100 µM (inactive)	> 100 µM (inactive)	> 100 µM (inactive)	> 100 µM (inactive)	> 100 µM (inactive)	> 100 µM (inactive)	> 100 µM (inactive)	> 100 µM (inactive)	> 100 µM (inactive)	> 100 µM (inactive)	> 100 µM (inactive)
CC(C)(C)OC(=O)NC(Cc1ccc(OCc2ccccc2)cn1)C(=O)N1CCCC1 (stereo not drawn)	> 100 µM (inactive)	23.5 µM (inactive)	> 100 µM (inactive)	78 µM (inactive)	54.6 µM (inactive)	45.7 µM (inactive)	19.3 µM (inactive)	35.3 µM (inactive)	37.4 µM (inactive)	54.3 µM (inactive)	77.6 µM (inactive)	> 100 µM (inactive)	25.1 µM (inactive)	53.7 µM (inactive)	> 100 µM (inactive)	62.1 µM (inactive)	> 100 µM (inactive)	68.9 µM (inactive)	67.8 µM (inactive)	79.3 µM (inactive)
Nc1cccc2nnccc12	> 100 µM (inactive)	–	> 100 µM (inactive)	> 100 µM (inactive)	> 100 µM (inactive)	> 100 µM (inactive)	> 100 µM (inactive)	19 µM (inactive)	> 100 µM (inactive)	> 100 µM (inactive)	> 100 µM (inactive)	> 100 µM (inactive)	> 100 µM (inactive)	> 100 µM (inactive)	> 100 µM (inactive)	> 100 µM (inactive)	> 100 µM (inactive)	> 100 µM (inactive)	–	> 100 µM (inactive)
CC(=O)O[C@H]1C[C@]2(C)C(CCC3O[C@@]32C)[C@@]2(CC(c3ccoc3)OC2O)[C@@H]1C (stereo partly drawn)	> 100 µM (inactive)	–	> 100 µM (inactive)	60.8 µM (inactive)	28.9 µM (inactive)	72.3 µM (inactive)	50 µM (inactive)	44.3 µM (inactive)	63.4 µM (inactive)	37.6 µM (inactive)	> 100 µM (inactive)	> 100 µM (inactive)	> 100 µM (inactive)	86.7 µM (inactive)	> 100 µM (inactive)	44.3 µM (inactive)	> 100 µM (inactive)	> 100 µM (inactive)	35.8 µM (inactive)	60.8 µM (inactive)
Cc1cc(O)c(C(C)C)cc1SC#N	10.7 µM (inactive)	21 µM (inactive)	16.9 µM (inactive)	16.4 µM (inactive)	2.16 µM (inactive)	17.2 µM (inactive)	19.6 µM (inactive)	5.46 µM (inactive)	16.6 µM (inactive)	14.6 µM (inactive)	–	–	19.2 µM (inactive)	13.7 µM (inactive)	–	14.9 µM (inactive)	18.2 µM (inactive)	19.4 µM (inactive)	6.3 µM (inactive)	–
CC[C@@]1(O)C(=O)OCc2c1cc1n(c2=O)Cc2cc3c(N)cccc3nc2-1 [9-AMINOCAMPTOTHECIN]	0.0356 µM (active)	< 0.01 µM (active)	0.246 µM (active)	< 0.01 µM (active)	0.0764 µM (active)	< 0.01 µM (active)	0.0118 µM (active)	0.0181 µM (active)	0.0571 µM (active)	< 0.0102 µM (active)	< 0.01 µM (active)	0.128 µM (active)	0.0128 µM (active)	0.118 µM (active)	0.0113 µM (active)	< 0.01 µM (active)	0.233 µM (active)	0.157 µM (active)	0.112 µM (active)	0.0272 µM (active)
